These results are taken from patent US20250221410A1, “SUBSTITUTED 2-C-AZINES AND SALTS THEREOF, AND USE THEREOF AS HERBICIDAL ACTIVE SUBSTANCES” (BAYER AKTIENGESELLSCHAFT, priority 2022, published 2025).

Test [1] has as its system VERPE: Veronica persica. Nature of the test: Post-emergence herbicidal efficacy at 80 g/ha, VERPE. The class given is in vivo. The following applies: visual rating about 3 weeks after treatment vs untreated controls. The gist of the method: (§1)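 Greenhouse plants grown in sandy loam were sprayed at the one-leaf stage, 2 to 3 weeks after sowing, with WP or EC formulations in water containing 0.5% additive at 600 l/ha. Visual rating against untreated controls came about 3 weeks later (100% = dead, 0% = as control).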

The subject of the next test is POLCO. Nature of the test: Post-emergence herbicidal efficacy at 80 g/ha, POLCO. As to conditions: visual rating about 3 weeks after treatment vs untreated controls. The class given is in vivo, Polygonum convolvulus. As for the experimental part: Seeds of monocotyledonous and dicotyledonous weeds and crop plants were placed in sandy loam in plastic or organic planting pots, covered with soil and cultivated in a greenhouse under controlled growth conditions. 2 to 3 weeks after sowing, the test plants were treated at the one-leaf stage. The compounds of the invention, formulated in the form of wettable powders (WP) or as emulsion concentrates (EC), were then sprayed onto the green parts of the plants as aqueous suspension or emulsion with addition of 0.5% additive at a water application rate of 600 l/ha (converted). After the test plants had been kept in the greenhouse under optimum growth conditions for about 3 weeks, the activity of the preparations was rated visually in comparison to untreated controls. For example, 100% activity=the plants have died, 0% activity=like control plants. Tables B1 to B10 below show the effects of selected compounds of the general formula (I) according to Table 1 on various harmful plants and an application rate corresponding to 80 g/ha, which were obtained by the experimental procedure mentioned above.

The subject of test [2] is AMARE: Amaranthus retroflexus. Nature of the test: Pre-emergence herbicide efficacy at 80 g/ha, AMARE. The class given is in vivo. The following applies: scored visually after about 3 weeks. The gist of the method: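 Pre-emergence treatment: aqueous suspension or emulsion (0.5% additive, 600 l/ha water) applied at 80 g/ha to the covering soil over sown seeds. Visual percent-damage rating against untreated plants followed after about 3 greenhouse weeks, 0% meaning unaffected and 100% meaning dead.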

For test [3], the system named is AMARE: Amaranthus retroflexus. Nature of the test: Post-emergence herbicidal efficacy at 80 g/ha, AMARE. The class given is in vivo. As to conditions: visual rating about 3 weeks after treatment vs untreated controls. The method in brief: as §1
Test [4] deals with VERPE: Veronica persica. Briefly: Pre-emergence herbicide efficacy at 80 g/ha, VERPE. The following applies: scored visually after about 3 weeks. The class given is in vivo. The source says: (§2) Seeds of monocotyledonous and dicotyledonous weed plants and crop plants were placed in plastic or organic planting pots and covered with soil. The compounds of the invention, formulated in the form of wettable powders (WP) or as emulsion concentrates (EC), were then applied to the surface of the covering soil as aqueous suspension or emulsion with addition of 0.5% additive at a water application rate equivalent to 600 l/ha. After the treatment, the pots were placed in a greenhouse and kept under good growth conditions for the test plants. After about 3 weeks, the efficacy of the preparations was scored visually in comparison with untreated controls as percentages. For example, 100% activity=the plants have died, 0% activity=like control plants. Tables D1 to D12 below show the effects of selected compounds of the general formula (I) according to Table 1 on various harmful plants and an application rate corresponding to 80 g/ha, which were obtained by the experimental procedure mentioned above.

A further test concerns KCHSC: Kochia scoparia. Nature of the test: Pre-emergence herbicide efficacy at 80 g/ha, KCHSC. The class given is in vivo. The following applies: scored visually after about 3 weeks.
Excerpt: as §2

With `O=S(=O)(CCC(F)(F)F)Oc1c(F)cccc1Cc1ncc(Cl)cn1` [Example 1-16], the “Post-emergence efficacy against VERPE” value with VERPE: Veronica persica [1] is 90%. Moreover, in the test with POLCO, the “Post-emergence efficacy against POLCO” value was determined as 80%. For the same compound, the “Pre-emergence efficacy against AMARE in %” value in test [2] worked out at 100%. For the same compound, the “Post-emergence efficacy against AMARE” value in test [3] is reported as 100%. Also, the “Pre-emergence efficacy against VERPE in %” value in the test with VERPE: Veronica persica [4] was 90%.

`Clc1cnc(Cc2ccccc2Oc2ncc(Cl)cn2)nc1` [Example 1-50]: the “Pre-emergence efficacy against AMARE in %” value in test [2] stood at 90%. In addition, in the test with KCHSC: Kochia scoparia, the “Pre-emergence efficacy against KCHSC in %” value is 90%.
